Patent publication US7091240B2, “Tubulin binding ligands and corresponding prodrug constructs” (Oxigene, Inc., priority 2000, dated 2006)
Read-outs that look alike come from different tables or passages of the source.

Experiments:
purified tubulin = assay: Inhibition of tubulin polymerization assay; format: biochemical, bovine; settings: for IC50: read-out: IC50 In Vitro Inhibition of Tubulin Polymerization, 1.5 mg/ml tubulin, preincubated 15 minutes at 37° C., GTP-induced
Procedure: IC50 values for tubulin polymerization were determined according to a previously described procedure (Bai et al, Cancer Research, 1996). Purified tubulin is obtained from bovine brain cells as described in Hamel and Lin (Hamel and Lin, Biochemistry, 1984). Various amounts of inhibitor were preincubated for 15 minutes at 37° C. with purified tubulin. After the incubation period, the reaction was cooled and GTP was added to induce tubulin polymerization. Polymerization was then monitored in a Gilford spectrophotometer at 350 nm. The final reaction mixtures (0.25 ml) contained 1.5 mg/ml tubulin, 0.6 mg/ml microtubule-associated proteins (MAPs), 0.5 mM GTP, 0.5 mM MgCl2, 4% DMSO and 0.1M 4-morpholineethanesulfonate buffer (MES, pH 6.4).

DU-145 = assay: In vitro cytotoxicity against human cancer cell lines (SRB); format: cell-based; settings: prostate; 48 hours incubation
Procedure: (§1) Briefly, the cell suspensions, diluted according to the particular cell type and the expected target cell density (5,000–40,000 cells per well based on cell growth characteristics), were added by pipet (100 μl) to 96-well microtiter plates. Inoculates were allowed a preincubation time of 24–28 hours at 37° C. for stabilization. Incubation with the inhibitor compounds lasted for 48 hours in 5% CO2 atmosphere and 100% humidity. Determination of cell growth was performed by in situ fixation of cells, followed by staining with a protein-binding dye sulforhodamine B (SRB), which binds to the basic amino acids of cellular macromolecules. The solubilized stain was measured spectrophotometrically.
(§2) Compounds were evaluated in terms of growth inhibitory activity against several human cancer cell lines including: central nervous system (“CNS”, SF-295 or SF-268), pancreas (BXPC-3), non-small cell lung cancer (“lung-NSC”, NCI-H460), breast (MCF-7), colon (KM20L2), ovarian (OVCAR-3), pharyngeal (FADU), or prostate (DU-145).

BXPC-3 = assay: as above; format: cell-based; settings: pancreas; 48 hours incubation
Procedure: as §1, §2

KM20L2 = assay: as above; format: cell-based; settings: colon; 48 hours incubation
Procedure: as §1, §2

MCF-7 = assay: as above; format: cell-based; settings: breast; 48 hours incubation
Procedure: as §1, §2

NCI-H460 = assay: as above; format: cell-based; settings: lung-NSC; 48 hours incubation
Procedure: as §1, §2

SF-295 = assay: as above; format: cell-based; settings: CNS; 48 hours incubation; unstarred values
Procedure: as §1, §2

[1] = test system: murine hemangioendothelioma MHEC-5T cell line; assay: In vitro antiproliferative activity, MTT assay; format: cell-based
Procedure: The following compounds were tested for in vitro antiproliferative activity against the murine hemangioendothelioma MHEC-5T cell line using a standard MTT assay (see Mosman, J. Immunol. Methods, 1983). In actively proliferating cells, an increase in MTT conversion is spectrophotometrically quantified by the reduction of MTT (3-[4,5-dimethylthiazol-2-yl]-2,5-diphenyl tetrazolium bromide) to the insoluble formazan dye by enzymes associated with metabolic activity. A compound with growth inhibitory activity will cause a reduction in dye formation relative to cells exposed to a vehicle control.

[2] = test system: human breast cancer MDA-MB-231 model; assay: Tumor growth control in vivo; settings: 400 mg/kg i.p. in saline, SCID mice, Days 1, 2 and 6 post-treatment
Procedure: The antitumor activity of BbT prodrug 8 was assessed in female tumor-bearing mice by measuring its effects on tumor volume in comparison with CA4P. A human breast cancer MDA-MB-231 model was established by subcutaneous injection of cultured M DA-MB-231 cells (1×10^6) in Fox Chase CB-17 SCID mice.
Mice were administered CA4P or BbT prodrug in saline carrier at 400 mg/kg by intraperitoneal (i.p.) injection after 1 week of MDA-MB inoculation. Saline carrier only was used as the control treatment. On Days 1, 2 and 6 post-treatment, tumors were measured by width and length by a caliber. Tumor volume was calculated according to the following formula: Length×Width^2×0.4. The relative anti-tumor effects are illustrated in FIG. 9.

OVCAR-3 = assay: In vitro cytotoxicity against human cancer cell lines (SRB); format: cell-based; settings: ovarian; 48 hours incubation
Procedure: as §1, with “The activity of several compounds were tested against a variety of cell lines derived from human tumors, using an assay system similar to a procedure previously described (Monks et al, J. Natl. Cancer Inst., 1991). Briefly,” for “Briefly,”
as §2

FADU = assay: as above; format: cell-based; settings: pharyngeal; 48 hours incubation
Procedure: as §1, with “The activity of several compounds were tested against a variety of cell lines derived from human tumors, using an assay system similar to a procedure previously described (Monks et al, J. Natl. Cancer Inst., 1991). Briefly,” for “Briefly,”
as §2

In vitro cytotoxicity = format: cell-based
SF-268 = assay: In vitro cytotoxicity against human cancer cell lines (SRB); format: cell-based; settings: CNS; 48 hours incubation; values marked *
Procedure: as §1, §2

[3] = test system: MHEC-5T hemangioendothelioma tumor model; assay: Inhibition of tumor blood flow, Fluorescent Bead Assay; format: in vivo; settings: single i.p. injection, 24 hours post-treatment, SCID mice
Procedure: The antivascular effects of the diphosphate BbF, Oxi-com 223, was assessed in tumor-bearing mice using a Fluorescent Bead Assay. A MHEC-5T hemangioendothelioma tumor model was established by subcutaneous injection of 0.5×10^6 cultured transformed cell murine myocardial vascular endothelial cell line (“MHEC5-T”) cells into the right flank of Fox Chase CB-17 Severe Combined Immunodeficient (“SCID”) mice. […] At 24 hours post-treatment, mice were injected intravenously with 0.25 ml of diluted FluoSphere beads (1:6 in physiological saline) in the tail vein, sacrificed after 3 minutes, and tumor was excised for cryosectioning. Tumor cryosections at a thickness of 8 μm were directly examined using quantitative fluorescent microscopy. Blood vessels were indicated by blue fluorescence from injected beads. For quanitification, image analysis of 3 sections from three tumors treated in each group were examined and vascular shutdown was expressed as vessel area (mm^2) per tumor tissue area (mm^2) as a percentage of the control (“% VAPM”). Compounds of the present invention were tested for antivascular effects at two dosages (100 mg/kg and 10 mg/kg) using the same Fluorescent Bead Assay as in the previous experiment.

[4] = 5 days, read-out: IC50 at 5 days
[5] = read-out: IC50 at 1 hour, 1 hour

| Structure (SMILES) | IC50 (purified tubulin) [µM] | GI50 for Cell Line DU-145 (DU-145) [mg/L] | GI50 for Cell Line BXPC-3 (BXPC-3) [mg/L] | GI50 for Cell Line NCI-H460 (NCI-H460) [mg/L] | IC50 [1, 4] [µM] | IC50 [1, 5] [µM] | further results |
| --- | --- | --- | --- | --- | --- | --- | --- |
| COc1ccc2c(-c3ccc(OC)c(O)c3O)c(C(=O)c3cc(OC)c(OC)c(OC)c3)oc2c1 [Compound 31, 3-(2″,3″-dihydroxy-4″-methoxyphenyl)-6-methoxy-2-(3′,4′,5′-trimethoxybenzoyl)benzo[b]furan] | 1 to 4 |  |  |  |  |  |  |
| COc1ccc2c(C(=O)c3cc(OC)c(OC)c(OC)c3)c(-c3ccc(OC)c(OP(=O)([O-])[O-])c3)sc2c1.[Na+].[Na+] [Oxi-com 140, 8, 3-(3′,4′,5′-trimethoxybenzoyl)-2-(3′-sodiumphosphate-4′-methoxyphenyl)-6-methoxybenzo[b]thiophene] |  | 0.045 | 0.35 | 0.035 | 0.129 | > 11.2 | GI50 for Cell Line KM20L2 (KM20L2): 0.22 mg/L; GI50 for Cell Line MCF-7 (MCF-7): 0.028 mg/L; GI50 for Cell Line SF-295 (SF-295): 0.11 mg/L; effect on tumor growth (tumor volume) relative to control treatment [2]: significantly inhibited tumor growth |
| COc1ccc(/C=C\c2cc(OC)c(OC)c(OC)c2)cc1OP(=O)([O-])[O-].[Na+].[Na+] [CA4P, Combretastatin A-4 Disodium Phosphate Prodrug, reference compound] |  |  |  |  | 0.002 | 0.8 | effect on tumor growth (tumor volume) relative to control treatment [2]: significantly inhibited tumor growth |
| C#C/C=C\C#CC(=O)c1cc(OC)c(OC)c(OC)c1 [Enediyne, 47, 1-(3,4,5-trimethoxybenzoyl)-(Z)-3-ene-1,5-hexadiyne] |  | 0.54 | 1.4 | 1.7 |  |  | inhibition of tubulin polymerization (in words) (purified tubulin): excellent inhibition of tubulin polymerization; GI50 for Cell Line OVCAR-3 (OVCAR-3): 0.53 mg/L; GI50 for Cell Line FADU (FADU): 0.95 mg/L; GI50 for Cell Line SF-295 (SF-295): 1.7 mg/L; cytotoxicity (in words) (In vitro cytotoxicity): strong cytotoxicity |
| COc1ccc2c(C(=O)c3cc(OC)c(OC)c(OC)c3)c(-c3ccc(OC)c(OP(=O)([O-])[O-])c3)oc2c1.[Na+].[Na+] [Oxi-com 195, 19, 2-(3″-disodiumphosphate-4″-methoxyphenyl)-6-methoxy-3-(3′,4′,5′-trimethoxybenzoyl)benzo[b]furan] | 4 to 10 | 0.05 | 2.3 | 0.05 | 0.1 | > 25 | GI50 for Cell Line SF-268 (SF-268): *0.062 μg/ml; GI50 for Cell Line KM20L2 (KM20L2): 3.8 mg/L; GI50 for Cell Line MCF-7 (MCF-7): 0.042 mg/L |
| COc1ccc2c(-c3ccc(OC)c(O)c3O)coc2c1 [Compound 28, 3-(2′,3′-hydroxy-4′-methoxyphenyl)-6-methoxybenzo[b]furan] | 1 to 4 |  |  |  |  |  |  |
| COc1ccc2c(C(=O)c3cc(OC)c(OC)c(OC)c3)c(-c3ccc(OC)c(OP(=O)([O-])[O-])c3)oc2c1.[Na+].[Na+] [Oxi-com 223, 33, 3-(3′,4′,5′-trimethoxybenzoyl)-2-(3′-disodiumphosphate-4′-methoxyphenyl)-6-methoxybenzo[b]furan] |  |  |  |  | > 1.4 | > 50 | % VAPM at 10 mg/kg dose ([3]; 10 mg/kg): 10%; % VAPM at 100 mg/kg dose ([3]; 100 mg/kg): 51% |
